Source: ChEMBL document CHEMBL5331046, “Disulfiram and dithiocarbamate analogues demonstrate promising antischistosomal effects” (Eur J Med Chem, 2022)
Calls of active or inactive are those of the source. No cut-off for these calls is given here.

Assays:
Schistosoma mansoni [1] = assay: Antischistosomal activity against Schistosoma mansoni couples at 50 uM measured upto 72 hrs by bright field microscopy; type: functional, organism-based
Schistosoma mansoni [2] = assay: Antischistosomal activity against Schistosoma mansoni couples assessed as tegument damage at 100 uM measured upto 72 hrs by bright field microscopy; type: functional, organism-based
Schistosoma mansoni [3] = assay: Antischistosomal activity against Schistosoma mansoni couples assessed as decrease in parasite motility at 100 uM measured upto 72 hrs by bright field microscopy; type: functional; parameters: scale not given: the % may be the effect or the level left
Schistosoma mansoni [4] = assay: Antischistosomal activity against Schistosoma mansoni couples at 25 uM measured upto 72 hrs by bright field microscopy; type: functional, organism-based
Schistosoma mansoni [5] = assay: Antischistosomal activity against Schistosoma mansoni couples assessed as reduction in parasite motility at <=50 uM measured upto 72 hrs by bright field microscopy; type: functional, organism-based
Schistosoma mansoni [6] = assay: Antischistosomal activity against Schistosoma mansoni couples assessed as reduction in pairing stability at 100 uM measured upto 72 hrs by bright field microscopy; type: functional
Schistosoma mansoni [7] = assay: Antischistosomal activity against Schistosoma mansoni couples assessed as eggs deformation at 100 uM measured upto 72 hrs by bright field microscopy; type: functional
Schistosoma mansoni [8] = assay: Antischistosomal activity against Schistosoma mansoni couples assessed as tegument damage at <=50 uM measured upto 72 hrs by bright field microscopy; type: functional, organism-based
Schistosoma mansoni [9] = assay: Antischistosomal activity against Schistosoma mansoni couples at 100 uM measured upto 72 hrs by bright field microscopy; type: functional, organism-based
LS174T [10] = assay: Cytotoxicity against human LS174T cells assessed as reduction in cell vaibility at 25 uM by WST-1 assay; type: toxicity, cell-based
Schistosoma mansoni [11] = assay: Antischistosomal activity against Schistosoma mansoni couples assessed as inhibition of eggs production at 10 uM measured upto 72 hrs by bright field microscopy; type: functional, organism-based
Schistosoma mansoni [12] = assay: Antischistosomal activity against Schistosoma mansoni couples assessed as decrease in parasite vitality at 10 uM measured upto 72 hrs by bright field microscopy; type: functional
Schistosoma mansoni [13] = assay: Antischistosomal activity against Schistosoma mansoni couples assessed as decrease in parasite motility at 25 uM measured upto 72 hrs by bright field microscopy; type: functional; parameters: scale not given: the % may be the effect or the level left
Schistosoma mansoni [14] = assay: Antischistosomal activity against Schistosoma mansoni couples assessed as reduction in pairing stability at 10 uM measured upto 72 hrs by bright field microscopy; type: functional, organism-based
LS174T [15] = assay: Cytotoxicity against human LS174T cells assessed as reduction in cell viability at 100 uM by WST-1 assay; type: toxicity, cell-based
Schistosoma mansoni [16] = assay: Antischistosomal activity against Schistosoma mansoni couples assessed as edematous swelling of gut at 25 uM measured upto 72 hrs by bright field microscopy; type: functional, organism-based
Schistosoma mansoni [17] = assay: Antischistosomal activity against Schistosoma mansoni couples assessed as decrease in pairing stability at 5 uM measured upto 72 hrs by bright field microscopy; type: functional; parameters: scale not given: the % may be the effect or the level left
HepG2 [18] = assay: Cytotoxicity against human HepG2 cells assessed as reduction in cell vaibility at 25 uM by WST-1 assay; type: toxicity, cell-based; conditions: hepg2, 25 µM
Schistosoma mansoni [19] = assay: Antischistosomal activity against Schistosoma mansoni couples assessed as dead worms at 25 uM measured upto 72 hrs by bright field microscopy; type: functional
HepG2 [20] = assay: Cytotoxicity against human HepG2 cells assessed as reduction in cell vaibility at 100 uM by WST-1 assay; type: toxicity, cell-based; conditions: hepg2, 100 µM
Schistosoma mansoni [21] = assay: Antischistosomal activity against Schistosoma mansoni couples assessed as decrease in parasite motility at 10 uM measured upto 72 hrs by bright field microscopy; type: functional, organism-based
Schistosoma mansoni [22] = assay: Antischistosomal activity against Schistosoma mansoni couples assessed as inhibition of eggs production at 5 uM measured upto 72 hrs by bright field microscopy; type: functional; parameters: scale not given: the % may be the effect or the level left
Schistosoma mansoni [23] = assay: Antischistosomal activity against Schistosoma mansoni couples assessed as decrease in parasite vitality at <=25 uM measured upto 72 hrs by bright field microscopy; type: functional, organism-based
Schistosoma mansoni [24] = assay: Antischistosomal activity against Schistosoma mansoni female worm assessed as gut dilatations at 100 uM measured upto 72 hrs by bright field microscopy; type: functional, organism-based
Schistosoma mansoni [25] = assay: Antischistosomal activity against Schistosoma mansoni couples assessed as inhibition of eggs production at <=25 uM measured upto 72 hrs by bright field microscopy; type: functional, organism-based
Schistosoma mansoni [26] = assay: Antischistosomal activity against Schistosoma mansoni male worm assessed as tegument damage at 100 uM measured upto 72 hrs by bright field microscopy; type: functional, organism-based
Schistosoma mansoni [27] = assay: Antischistosomal activity against Schistosoma mansoni couples assessed as lethality to parasites at 50 uM measured upto 72 hrs by bright field microscopy; type: functional, organism-based
Schistosoma mansoni [28] = assay: Antischistosomal activity against Schistosoma mansoni female worm assessed as gut dilatations at 10 uM measured upto 72 hrs by bright field microscopy; type: functional, organism-based
Schistosoma mansoni [29] = assay: Antischistosomal activity against Schistosoma mansoni couples assessed as couple separation at 100 uM measured upto 72 hrs by bright field microscopy; type: functional, organism-based
Schistosoma mansoni [30] = assay: Antischistosomal activity against Schistosoma mansoni female worm assessed as tegument damage at 100 uM measured upto 72 hrs by bright field microscopy; type: functional, organism-based
Schistosoma mansoni [31] = assay: Antischistosomal activity against Schistosoma mansoni couples assessed as decrease in parasite vitality at 15 uM measured upto 72 hrs by bright field microscopy; type: functional; parameters: scale not given: the % may be the effect or the level left
Schistosoma mansoni [32] = assay: Antischistosomal activity against Schistosoma mansoni couples assessed as decrease in parasite motility at 15 uM measured upto 72 hrs by bright field microscopy; type: functional; parameters: scale not given: the % may be the effect or the level left
Schistosoma mansoni [33] = assay: Antischistosomal activity against Schistosoma mansoni couples assessed as inhibition of eggs production at 15 uM measured upto 72 hrs by bright field microscopy; type: functional; parameters: scale not given: the % may be the effect or the level left
Schistosoma mansoni [34] = assay: Antischistosomal activity against Schistosoma mansoni couples assessed as decrease in pairing stability at 15 uM measured upto 72 hrs by bright field microscopy; type: functional; parameters: scale not given: the % may be the effect or the level left
Schistosoma mansoni [35] = assay: Antischistosomal activity against Schistosoma mansoni couples assessed as loss of internal structures at <=10 uM measured upto 72 hrs by bright field microscopy; type: functional, organism-based
Schistosoma mansoni [36] = assay: Antischistosomal activity against Schistosoma mansoni couples assessed as induction of phenotypes at 10 uM measured upto 72 hrs by bright field microscopy; type: functional, organism-based
Schistosoma mansoni [37] = assay: Antischistosomal activity against Schistosoma mansoni couples assessed as tegument damage at 10 uM measured upto 72 hrs by bright field microscopy; type: functional, organism-based
Schistosoma mansoni [38] = assay: Antischistosomal activity against Schistosoma mansoni couples assessed as tegument damage at <=10 uM measured upto 72 hrs by bright field microscopy; type: functional, organism-based
Schistosoma mansoni [39] = assay: Antischistosomal activity against Schistosoma mansoni couples assessed as gut dilatations at <=10 uM measured upto 72 hrs by bright field microscopy; type: functional, organism-based
Schistosoma mansoni [40] = assay: Antischistosomal activity against Schistosoma mansoni couples assessed as gut dilatations at 10 uM measured upto 72 hrs by bright field microscopy; type: functional, organism-based
Schistosoma mansoni [41] = assay: Antischistosomal activity against Schistosoma mansoni couples assessed as loss of internal structures at 10 uM measured upto 72 hrs by bright field microscopy; type: functional, organism-based
Schistosoma mansoni [42] = assay: Antischistosomal activity against Schistosoma mansoni couples assessed as reduction in parasite motility at <=10 uM measured upto 72 hrs by bright field microscopy; type: functional; parameters: scale not given: the % may be the effect or the level left; conditions: up to 10 µM
HepG2 [43] = assay: Cytotoxicity against human HepG2 cells assessed as reduction in cell viability upto 50 uM by WST-1 assay; type: toxicity, cell-based; conditions: hepg2, 50 µM
Schistosoma mansoni [44] = assay: Antischistosomal activity against Schistosoma mansoni couples at 5 uM measured upto 72 hrs by bright field microscopy; type: functional, organism-based
LS174T [45] = assay: Cytotoxicity against human LS174T cells assessed as reduction in cell vaibility upto 50 uM by WST-1 assay; type: toxicity, cell-based

CCN(CC)C(=S)SCc1ccc(S(C)(=O)=O)cc1
Activity (Schistosoma mansoni [1]): Active
Activity (Schistosoma mansoni [2]): Active
Activity (Schistosoma mansoni [3]): ~60%
Activity (Schistosoma mansoni [4]): inactive

CCCN(CCC)C(=S)SCc1ccccc1
Activity (Schistosoma mansoni [5]): inactive
Activity (Schistosoma mansoni [2]): Active
Activity (Schistosoma mansoni [3]): ~40%
Activity (Schistosoma mansoni [6]): Active
Activity (Schistosoma mansoni [7]): Active
Activity (Schistosoma mansoni [8]): inactive

Cl.O=C([C@@H]1CCCN1)N1CCN(C(=S)SCc2ccc([N+](=O)[O-])cc2)CC1
Activity (Schistosoma mansoni [9]): Active
Activity (LS174T [10]): Toxic
Activity (Schistosoma mansoni [11]): Active
Activity (Schistosoma mansoni [12]): Active
Activity (Schistosoma mansoni [13]): 65%
Activity (Schistosoma mansoni [14]): Active
Activity (LS174T [15]): Toxic
Activity (Schistosoma mansoni [16]): Active
Activity (Schistosoma mansoni [17]): ~80%
Activity (HepG2 [18]): Toxic
Activity (Schistosoma mansoni [19]): <=25%
Activity (HepG2 [20]): Toxic
Activity (Schistosoma mansoni [21]): inactive
Activity (Schistosoma mansoni [22]): ~80%

S=C(SCc1ccccc1)n1ccc2ccccc21
Activity (Schistosoma mansoni [23]): Active
Activity (Schistosoma mansoni [24]): Active
Activity (Schistosoma mansoni [25]): Active
Activity (Schistosoma mansoni [13]): >=55%
Activity (Schistosoma mansoni [26]): Active
Activity (LS174T [15]): Non-Toxic
Activity (Schistosoma mansoni [27]): Active
Activity (Schistosoma mansoni [28]): inactive
Activity (Schistosoma mansoni [29]): Active
Activity (Schistosoma mansoni [30]): Active
Activity (HepG2 [20]): Non-Toxic

O=[N+]([O-])c1ccc(CSC(=S)N2CCN(S(=O)(=O)c3ccccc3)CC2)cc1
Activity (Schistosoma mansoni [31]): 90%
Activity (Schistosoma mansoni [32]): 50%
Activity (Schistosoma mansoni [33]): 40%
Activity (Schistosoma mansoni [34]): 20%
Activity (Schistosoma mansoni [35]): inactive
Activity (Schistosoma mansoni [36]): Active
Activity (Schistosoma mansoni [37]): Active
Activity (LS174T [15]): Toxic
Activity (Schistosoma mansoni [38]): inactive
Activity (Schistosoma mansoni [39]): inactive
Activity (Schistosoma mansoni [40]): Active
Activity (HepG2 [20]): Toxic
Activity (Schistosoma mansoni [21]): Active
Activity (Schistosoma mansoni [41]): Active
Activity (Schistosoma mansoni [42]): 50%

CCN(CC)C(=S)SCc1cc(=O)oc2cc(OC)ccc12
Activity (HepG2 [43]): Non-Toxic
Activity (Schistosoma mansoni [44]): Active
Activity (LS174T [45]): Non-Toxic
